Consider four compounds from patent US20120302530A1, “23-HYDROXY-BETULINIC ACID DERIVATIVES, PREPARATION METHODS AND USES THEREOF” (priority 2009, published 2012).

Molecules are shown by their SMILES. Read-outs that look alike come from different tables or passages of the source.

As a reminder, the EC50 is the concentration that produces a half-maximal response.

For series [1], the system named is C8166 (human T cell line). Nature of the series: Toxicity to C8166 cells (MTT, day 7). The class given is cell-based. The settings on record: C8166, day 7, MTT. How it is done: (§1) (2) Toxicity of compounds zhangnan-5, zhangnan-7 and zhangnan-8 to C8166 and PBMC cells:
(§2) C8166 (human T cell line) and PBM (using lymphocyte isolation liquid to separate from normal human peripheral blood, and adhered mononuclear cell separated from PBMC) cells in exponential phase are taken. The cells are resuspended after centrifugal (1000 r•min-1, 10 min), and the concentrations are adjusted to 4×10^5/ml and 2×10^6/ml. The test samples are double diluted on the 96-hole cell culture plate. In total 6 gradients are set, each having 3 duplicate holes. In addition, positive control group and cell control group are set. Upon adding cell suspended liquid, the test samples are placed in incubator of 370C and 5% CO2 for incubation. On the seventh (7th) day, MTT method is used to determine toxicity of the samples to cells.
(§3) Inhibition ratio of cell growth (%)=(1−experimental hole OD value/control hole (OD value)×100%

For a further series, the system named is normal person PBMC. The series is described as follows: Toxicity to PBMC cells (MTT, day 7). The settings on record: day 7, MTT. The class given is cell-based, human. How it is done:
as §1, §2, §3

Another series relates to HIV-1IIIB. The series is described as follows: Inhibition of HIV-1IIIB induced syncytium formation in C8166 cells. In kind it is cell-based. The settings on record: for therapeutic index TI: HIV-1IIIB syncytium, C8166, TI=IC50/EC50; for EC50: HIV-1IIIB, C8166 cells, third day after infection. The text has this:
(3) The inhibition effects of compounds zhangnan-5, zhangnan-7 and zhangnan-8 to virus HIV-1IIIB inducing C8166 cell to form syncytium: (see JIANG, Haiou; WANG, Xu; L I, Rurun; CHEN, Dagang; B I, Kunlong, Experimental Research on Recipe Sanhuangsan Capsule for Resisting AIDS virus in Vitro, [J]. Shandong Journal of Traditional Chinese medicine, 2005.8 (1):21-26).
The test sample is double diluted with culture medium on the 96-hole flat culture plate. There are 8 dilutions in total. Each hole 100 ul has 2 duplicate holes. In addition, there are positive control group, cell control group and virus control group. 80 ul C8166 cell of 4×10^5/ml is added into each hole, and then 20 ul virus HIV-1IIIB supernatant is added into each hole. The final volume of each hole is 200 ul. The sample is placed in incubator of 370C, 5% CO2 for cultivation. […] Under the inverted microscope, the number of syncytium formed by virus HIV-1IIIB inducing C8166 cell is counted. […] The following formula is used to calculate the inhibition ratio of the sample to syncytium.
Inhibition ratio formed by syncytium (%)=(1−experimental hole syncytium number/control hole syncytium number)×100%

For another series, the system named is HIV-1Ada-M. Nature of the series: ELISA of HIV-1Ada-M p24 antigen expression in PBMC. The class given is cell-based. The settings on record: for therapeutic index TI: HIV-1Ada-M p24, PBMC, TI=IC50/EC50. The text has this:
(4) Quantitative Enzyme Linked Immunoadsorbent method (EIISA) detecting inhibiting effects of compounds to virus HIV-1Ada-Mp24 expression: (see JIANG, Haiou; WANG, Xu; L I, Rurun; CHEN, Dagang; B I, Kunlong, Experimental Research on Recipe Sanhuangsan Capsule Resisting AIDS Virus in Vitro, [J], Shandong Journal of Traditional Chinese medicine, 2005.8 (1):21-26).
Multi-heads sample injector is used to conduct triple dilution to the sample on the 96-hole culture plate. There are 6 dilutions, in which each dilution has 3 duplicate holes, and each hole is 100 ul. […] On the 96-hole flat culture plate, each hole is added with 25 ul virus stock solution containing 1000˜5000 pg/well P24 antigen, which is sufficiently blended. 75 ul mononuclear cell PBMC suspension liquid is added (3×10^5 cell numbers/hole). Upon placing in incubator of 37° C., 5% CO2 to the third day, 100 ul of culture medium is added to each hole. On the 7th day, cell culture supernatant is collected for p24 antigen test. According to p24 kit description, ELISA method is used to measure the virus HIV-1 p24 antigen concentration of each sample cell culture hole supernatant. The following formula is used to calculate the inhibition ratio of sample to virus.
Inhibition ratio of sample to virus p24 antigen (%)=(1−experimental hole OD value/cell+virus control hole OD value)×100%. Reed and Mueneh method is used to calculate EC50 of the test sample, and to further calculate the therapeutic index (TI) (TI=IC50/EC50). […] The positive control SCH-C, 23-hydroxyl-betulinic acid, compounds zhangnan-5, zhangnan-7 and zhangnan-8 all reach an inhibition ratio above 50% within the tested range. The positive control SCH-C inhibits HIV-1Ada-M p24 antigen expression. […] In addition, the inhibition effect to HIV-1Ada-M has significant dose-effect relationship with its concentration.
(In an ELISA, binding on a coated surface is turned into a signal by an enzyme label.)

For series [2] the following is noted: when even reaching 500 mg/kg; cited from earlier work.

As for `C=C(C)[C@@H]1CC[C@]2(C(=O)O)CC[C@]3(C)[C@H](CC[C@@H]4[C@@]5(C)CC[C@H](O)[C@@](C)(CO)[C@@H]5CC[C@]43C)[C@@H]12` [23-hydroxyl-betulinic acid, reference compound], the IC50 was 15.1 ± 3.57 µM in series [1] (read-out: IC50 (50% inhibition concentration) to C8166 cell) and 14.9 ± 3.46 µM in the series with normal person PBMC. Besides, the “therapeutic index TI” value came to 13 with HIV-1IIIB and 7.8 in the series on HIV-1Ada-M. Moreover, the EC50 was found to be 1.2 ± 0.23 µM in the series on HIV-1IIIB and 1.9 ± 0.39 µM in the series with HIV-1Ada-M (HIV-1Ada-M, PBMC, 7th day, ELISA, read-out: EC50, inhibition of p24 antigen expression).
As for `Cc1cn([C@H]2C[C@H](N=[N+]=[N-])[C@@H](CO)O2)c(=O)[nH]c1=O` [AZT, reference compound], in series [1] (positive control, read-out: toxicity to 50% of C8166 cells), the IC50 was 3440 µM. Also, in the series with HIV-1IIIB, the “therapeutic index TI” value worked out at 2473 and the EC50 worked out at 1.39 µM.
Regarding `C=C(C)[C@@H]1CC[C@]2(C(=O)O)CC[C@]3(C)[C@H](CC[C@@H]4[C@@]5(C)CC[C@H](O)C(C)(C)[C@@H]5CC[C@]43C)[C@@H]12` [Betulinic acid, 3β-hydroxy-1up-20(29)-ene-28-oic acid], in series [2], the toxic reaction result is recorded as “no obvious toxic reaction”.
On to `CCO/N=C(\c1ccc(Br)cc1)C1CCN(C2(C)CCN(C(=O)c3c(C)cc[n+]([O-])c3C)CC2)CC1` [SCH-C, reference compound], for which, in the series on HIV-1Ada-M, the “therapeutic index TI” value stood at 2583.
